Measured values published in PubChem BioAssay (NCI).
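Abbreviation: GI50, concentration required for 50% inhibition of growth. TGI: concentration producing complete growth inhibition.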

Key:
Assay in all cases: DTP human tumour cell line panel, 384-well format
786-0 renal = tested on: 786-0 renal
A498 renal = tested on: A498 renal
ACHN renal = tested on: ACHN renal
BT-549 breast = tested on: BT-549 breast
CAKI-1 renal = tested on: CAKI-1 renal
CCRF-CEM leukemia = tested on: CCRF-CEM leukemia
COLO 205 colon = tested on: COLO 205 colon
DU-145 prostate = tested on: DU-145 prostate
EKVX NSCLC = tested on: EKVX NSCLC
HCC-2998 colon = tested on: HCC-2998 colon
HL-60(TB) leukemia = tested on: HL-60(TB) leukemia
HOP-62 NSCLC = tested on: HOP-62 NSCLC
HS 578T breast = tested on: HS 578T breast
HT29 colon = tested on: HT29 colon
K-562 leukemia = tested on: K-562 leukemia
LOX IMVI melanoma = tested on: LOX IMVI melanoma
MALME-3M melanoma = tested on: MALME-3M melanoma
MCF7 breast = tested on: MCF7 breast
MDA-MB-231 breast = tested on: MDA-MB-231 breast
MDA-MB-435 melanoma = tested on: MDA-MB-435 melanoma
MOLT-4 leukemia = tested on: MOLT-4 leukemia
NCI-H226 lung = tested on: NCI-H226 lung
NCI-H23 lung = tested on: NCI-H23 lung
NCI-H322M lung = tested on: NCI-H322M lung
NCI/ADR-RES ovarian = tested on: NCI/ADR-RES ovarian
OVCAR-3 ovarian = tested on: OVCAR-3 ovarian
OVCAR-5 ovarian = tested on: OVCAR-5 ovarian
OVCAR-8 ovarian = tested on: OVCAR-8 ovarian
PC-3 prostate = tested on: PC-3 prostate
RPMI-8226 leukemia = tested on: RPMI-8226 leukemia
RXF 393 renal = tested on: RXF 393 renal
SF-268 CNS = tested on: SF-268 CNS
SF-295 CNS = tested on: SF-295 CNS
SF-539 CNS = tested on: SF-539 CNS
SK-MEL-28 melanoma = tested on: SK-MEL-28 melanoma
SK-MEL-5 melanoma = tested on: SK-MEL-5 melanoma
SK-OV-3 ovarian = tested on: SK-OV-3 ovarian
SN12C renal = tested on: SN12C renal
SNB-19 CNS = tested on: SNB-19 CNS
SNB-75 CNS = tested on: SNB-75 CNS
SR leukemia = tested on: SR leukemia
T-47D breast = tested on: T-47D breast
TK-10 renal = tested on: TK-10 renal
U251 glioblastoma = tested on: U251 glioblastoma
UACC-257 melanoma = tested on: UACC-257 melanoma
UACC-62 melanoma = tested on: UACC-62 melanoma
UO-31 renal = tested on: UO-31 renal

COc1cc(C)[nH]c(=O)c1CNC(=O)c1c(C)n([C@H](C)C2CCN(CC(F)(F)F)CC2)c2ccccc12
GI50 ([…]-0 renal): 50.6 µM
TGI (786-0 renal): > 100 µM
GI50 (A498 renal): 43.1 µM
TGI (A498 renal): > 100 µM
GI50 (ACHN renal): 45.4 µM
TGI (ACHN renal): > 100 µM
GI50 (BT-549 breast): 27.4 µM
TGI (BT-549 breast): > 72.6 µM
GI50 (CAKI-1 renal): 63.5 µM
TGI (CAKI-1 renal): > 100 µM
GI50 (CCRF-CEM leukemia): 21.6 µM
TGI (CCRF-CEM leukemia): 43.9 µM
GI50 (COLO 205 colon): 97.3 µM
TGI (COLO 205 colon): > 100 µM
GI50 (DU-145 prostate): 51.1 µM
TGI (DU-145 prostate): > 100 µM
GI50 (EKVX NSCLC): 67.7 µM
TGI (EKVX NSCLC): > 100 µM
GI50 (HCC-2998 colon): 65.3 µM
TGI (HCC-2998 colon): > 100 µM
GI50 (HL-60(TB) leukemia): 33.4 µM
TGI (HL-60(TB) leukemia): > 61.6 µM
GI50 (HOP-62 NSCLC): 46.7 µM
TGI (HOP-62 NSCLC): > 100 µM
GI50 (HS 578T breast): 40.1 µM
TGI (HS 578T breast): > 100 µM
GI50 (HT29 colon): 39.7 µM
TGI (HT29 colon): > 100 µM
GI50 (K-562 leukemia): 36.3 µM
TGI (K-562 leukemia): > 100 µM
GI50 (LOX IMVI melanoma): 31.7 µM
TGI (LOX IMVI melanoma): 94.1 µM
GI50 (MALME-3M melanoma): > 66.1 µM
TGI (MALME-3M melanoma): > 100 µM
GI50 (MCF7 breast): 27.3 µM
TGI (MCF7 breast): > 100 µM
GI50 (MDA-MB-231 breast): 67.5 µM
TGI (MDA-MB-231 breast): > 100 µM
GI50 (MDA-MB-435 melanoma): 58.6 µM
TGI (MDA-MB-435 melanoma): > 100 µM
GI50 (MOLT-4 leukemia): 16.5 µM
TGI (MOLT-4 leukemia): 31.3 µM
GI50 (NCI-H226 lung): > 51.9 µM
TGI (NCI-H226 lung): 96.9 µM
GI50 (NCI-H23 lung): > 100 µM
TGI (NCI-H23 lung): > 100 µM
GI50 (NCI-H322M lung): > 83.6 µM
TGI (NCI-H322M lung): > 100 µM
GI50 (NCI/ADR-RES ovarian): > 100 µM
TGI (NCI/ADR-RES ovarian): > 100 µM
GI50 (OVCAR-3 ovarian): 34.2 µM
TGI (OVCAR-3 ovarian): > 96.5 µM
GI50 (OVCAR-5 ovarian): > 100 µM
TGI (OVCAR-5 ovarian): > 100 µM
GI50 (OVCAR-8 ovarian): > 96 µM
TGI (OVCAR-8 ovarian): > 100 µM
GI50 (PC-3 prostate): 55.5 µM
TGI (PC-3 prostate): > 100 µM
GI50 (RPMI-8226 leukemia): 2400 nM
TGI (RPMI-8226 leukemia): 10.3 µM
GI50 (RXF 393 renal): 28.3 µM
TGI (RXF 393 renal): 79.7 µM
GI50 (SF-268 CNS): 39.6 µM
TGI (SF-268 CNS): > 68.2 µM
GI50 (SF-295 CNS): 76.6 µM
TGI (SF-295 CNS): > 100 µM
GI50 (SF-539 CNS): > 100 µM
TGI (SF-539 CNS): > 100 µM
GI50 (SK-MEL-28 melanoma): 98.2 µM
TGI (SK-MEL-28 melanoma): > 100 µM
GI50 (SK-MEL-5 melanoma): 33.5 µM
TGI (SK-MEL-5 melanoma): > 65.5 µM
GI50 (SK-OV-3 ovarian): 56.6 µM
TGI (SK-OV-3 ovarian): > 100 µM
GI50 (SN12C renal): > 80.5 µM
TGI (SN12C renal): > 100 µM
GI50 (SNB-19 CNS): > 100 µM
TGI (SNB-19 CNS): > 100 µM
GI50 (SNB-75 CNS): 42 µM
TGI (SNB-75 CNS): > 100 µM
GI50 (SR leukemia): 21.5 µM
TGI (SR leukemia): 76.5 µM
GI50 (T-47D breast): 29.7 µM
TGI (T-47D breast): > 94.1 µM
GI50 (TK-10 renal): > 100 µM
TGI (TK-10 renal): > 100 µM
GI50 (U251 glioblastoma): 98 µM
TGI (U251 glioblastoma): > 100 µM
GI50 (UACC-257 melanoma): 50.3 µM
TGI (UACC-257 melanoma): > 100 µM
GI50 (UACC-62 melanoma): 37.9 µM
TGI (UACC-62 melanoma): > 100 µM
GI50 (UO-31 renal): 90.4 µM
TGI (UO-31 renal): > 100 µM
